Results on 24 compounds are retold here after patent US9926281B2 (priority 2014, dated 2018).

Test [1] concerns the target human ADAMTS-5 (Homo sapiens (Human), UniProt Q9UNA0). Particulars: read-out: hADAMTS-5 potency IC50.
Procedure: Finally, the fluorescence is read on the Envision (Perkin Elmer) after an incubation of 90 min at 37° C.
The target in test [2] is human TACE (Homo sapiens (Human), UniProt P78536). The note with it: read-out: TACE potency IC50.
The target in test [3] is human MMP14 (Homo sapiens (Human), UniProt P50281). The note with it: read-out: hMMP-14 potency IC50.

The structures appear in SMILES notation.

human ADAMTS-5, sequence (Q9UNA0 262-930): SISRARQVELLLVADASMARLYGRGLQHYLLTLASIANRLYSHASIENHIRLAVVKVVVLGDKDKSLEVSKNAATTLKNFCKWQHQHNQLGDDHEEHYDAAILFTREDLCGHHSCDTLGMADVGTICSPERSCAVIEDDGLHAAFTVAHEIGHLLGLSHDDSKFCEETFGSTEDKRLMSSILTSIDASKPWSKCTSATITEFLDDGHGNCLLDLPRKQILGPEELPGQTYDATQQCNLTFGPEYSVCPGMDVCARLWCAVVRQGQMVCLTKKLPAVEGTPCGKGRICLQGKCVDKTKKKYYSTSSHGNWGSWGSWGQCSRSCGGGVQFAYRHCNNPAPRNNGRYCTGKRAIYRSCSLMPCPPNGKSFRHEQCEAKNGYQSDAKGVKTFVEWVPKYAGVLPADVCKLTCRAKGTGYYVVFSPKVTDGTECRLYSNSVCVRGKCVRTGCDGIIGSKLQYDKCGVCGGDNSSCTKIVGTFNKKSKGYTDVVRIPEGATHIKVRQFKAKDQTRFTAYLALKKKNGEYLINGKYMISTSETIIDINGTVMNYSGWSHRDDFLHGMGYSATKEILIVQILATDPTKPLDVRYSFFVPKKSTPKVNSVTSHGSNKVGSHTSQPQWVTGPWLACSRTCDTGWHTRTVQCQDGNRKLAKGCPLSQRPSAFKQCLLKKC
human TACE, sequence (P78536 whole entry, looked up, change not shown): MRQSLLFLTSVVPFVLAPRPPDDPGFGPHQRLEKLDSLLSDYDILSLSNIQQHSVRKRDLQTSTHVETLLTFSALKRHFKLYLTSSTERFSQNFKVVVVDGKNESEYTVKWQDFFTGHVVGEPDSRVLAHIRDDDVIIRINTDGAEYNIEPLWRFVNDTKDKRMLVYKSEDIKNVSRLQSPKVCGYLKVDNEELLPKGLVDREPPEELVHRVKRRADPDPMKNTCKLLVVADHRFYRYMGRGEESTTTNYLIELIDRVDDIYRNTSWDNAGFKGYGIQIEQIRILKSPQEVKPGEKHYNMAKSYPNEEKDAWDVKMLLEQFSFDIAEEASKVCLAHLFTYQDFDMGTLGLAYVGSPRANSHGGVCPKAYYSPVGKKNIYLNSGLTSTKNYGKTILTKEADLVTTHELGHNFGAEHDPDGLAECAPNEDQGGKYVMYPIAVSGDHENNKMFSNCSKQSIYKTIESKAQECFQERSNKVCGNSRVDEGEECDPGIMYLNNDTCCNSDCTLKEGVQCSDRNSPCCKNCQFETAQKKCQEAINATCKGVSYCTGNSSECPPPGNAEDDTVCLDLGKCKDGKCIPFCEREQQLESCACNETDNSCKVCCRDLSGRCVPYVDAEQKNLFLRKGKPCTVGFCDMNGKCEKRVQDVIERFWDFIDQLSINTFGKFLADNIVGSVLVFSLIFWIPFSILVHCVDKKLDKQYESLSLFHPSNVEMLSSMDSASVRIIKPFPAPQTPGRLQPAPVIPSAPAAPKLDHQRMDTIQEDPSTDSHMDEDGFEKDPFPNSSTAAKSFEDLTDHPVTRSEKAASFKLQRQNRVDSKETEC

With `C[C@H]1CN(C(=O)CCC2(C3CC3)NC(=O)NC2=O)CCN1c1cccc(Br)c1` (stereo partly drawn) [compound 270, 5-[3-[(3S)-4-(3-bromophenyl)-3-methyl-piperazin-1-yl]-3-oxo-propyl]-5-cyclopropyl-imidazolidine-2,4-dione], the IC50 (commonly the concentration that gives 50% inhibition) in test [1] is 76 nM; in test [2], more than 4000 nM; in test [3], more than 4000 nM.
For `CC(CC1(C)NC(=O)NC1=O)C(=O)N1CCN(c2cncc(Cl)c2)[C@@H](C)C1` (stereo partly drawn) [compound 276, 5-[3-[(3S)-4-(5-chloro-3-pyridyl)-3-methyl-piperazin-1-yl]-2-methyl-3-oxo-propyl]-5-methyl-imidazolidine-2,4-dione], the IC50 in test [1] is 115 nM; in test [2] it was more than 4000 nM; in test [3], more than 20000 nM.
The corresponding values for `CC(CC1(C)NC(=O)NC1=O)C(=O)N1CCN(c2cncc(F)c2)[C@@H](C)C1` (stereo partly drawn) [compound 277, 5-[3-[(3S)-4-(5-fluoro-3-pyridyl)-3-methyl-piperazin-1-yl]-2-methyl-3-oxo-propyl]-5-methyl-imidazolidine-2,4-dione] are 152 nM, more than 4000 nM and more than 20000 nM.
With `C[C@H]1CN(C(=O)CCC2(C3CC3)NC(=O)NC2=O)CCN1c1cccc(-c2cn[nH]c2)c1` (stereo partly drawn) [compound 282, 5-cyclopropyl-5-[3-[(3S)-3-methyl-4-[3-(1H-pyrazol-4-yl)phenyl]piperazin-1-yl]-3-oxo-propyl]imidazolidine-2,4-dione], the half-inhibitory concentration (IC50) in test [1] was 110 nM; in test [2], more than 20000 nM; in test [3] it was more than 20000 nM.
Consider `Cc1ccc(C2(CCC(=O)N3CCN(c4ccc(F)c(Cl)c4)[C@@H](C)C3)NC(=O)NC2=O)cn1` (stereo partly drawn) [compound 287, 5-[3-[(3S)-4-(3-chloro-4-fluoro-phenyl)-3-methyl-piperazin-1-yl]-3-oxo-propyl]-5-(6-methyl-3-pyridyl)imidazolidine-2,4-dione], for which the figures for the IC50 in test [1], in test [2] and in test [3] were 52 nM, more than 4000 nM and more than 4000 nM, respectively.
In the case of `C[C@H]1CN(C(=O)CCC2(c3ccncc3)NC(=O)NC2=O)CCN1c1ccc(F)c(Cl)c1` (stereo partly drawn) [compound 288, 5-[3-[(3S)-4-(3-chloro-4-fluoro-phenyl)-3-methyl-piperazin-1-yl]-3-oxo-propyl]-5-(4-pyridyl)imidazolidine-2,4-dione], the results for the IC50 in test [1], in test [2] and in test [3] were 72 nM, more than 4000 nM and more than 4000 nM, respectively.
For the compound `Cc1cccc(C2(CCC(=O)N3CCN(c4cc(F)cc(Cl)c4)[C@@H](C)C3)NC(=O)NC2=O)n1` (stereo partly drawn) [compound 307, 5-[3-[(3S)-4-(3-chloro-5-fluoro-phenyl)-3-methyl-piperazin-1-yl]-3-oxo-propyl]-5-(6-methyl-2-pyridyl)imidazolidine-2,4-dione], the IC50 in test [1] is 44 nM; in test [2] it was 3590 nM; in test [3], more than 20000 nM.
Consider `Cc1cccc(C2(CCC(=O)N3CCN(c4cccc(F)c4)[C@@H](C)C3)NC(=O)NC2=O)n1` (stereo partly drawn) [compound 308, 5-[3-[(3S)-4-(3-fluorophenyl)-3-methyl-piperazin-1-yl]-3-oxo-propyl]-5-(6-methyl-2-pyridyl)imidazolidine-2,4-dione], for which the IC50 in test [1] was 59 nM; in test [2] it was more than 4000 nM; in test [3] it was more than 20000 nM.
The corresponding values for `Cc1cccc(C2(CCC(=O)N3CCN(c4cc(F)cc(F)c4)[C@@H](C)C3)NC(=O)NC2=O)n1` (stereo partly drawn) [compound 309, 5-[3-[(3S)-4-(3,5-difluorophenyl)-3-methyl-piperazin-1-yl]-3-oxo-propyl]-5-(6-methyl-2-pyridyl)imidazolidine-2,4-dione] are 31 nM, more than 4000 nM and more than 20000 nM.
For `CC(CC1(C2CC2)NC(=O)NC1=O)C(=O)N1CCN(c2cncc(F)c2)[C@@H](C)C1` (stereo partly drawn) [compound 313, 5-cyclopropyl-5-[3-[(3S)-4-(5-fluoro-3-pyridyl)-3-methyl-piperazin-1-yl]-2-methyl-3-oxo-propyl]imidazolidine-2,4-dione] the same measures were 34 nM, more than 20000 nM and more than 20000 nM.
Regarding `C[C@H]1CN(C(=O)CCC2(c3cccnc3)NC(=O)NC2=O)CCN1c1ccc(F)c(Cl)c1` (stereo partly drawn) [compound 316, 5-[3-[(3S)-4-(3-chloro-4-fluoro-phenyl)-3-methyl-piperazin-1-yl]-3-oxo-propyl]-5-(3-pyridyl)imidazolidine-2,4-dione], the IC50 was 61 nM in test [1], more than 4000 nM in test [2] and more than 20000 nM in test [3].
The corresponding values for `C[C@H]1CN(C(=O)CCC2(c3cccnc3)NC(=O)NC2=O)CCN1c1cc(F)cc(Cl)c1` (stereo partly drawn) [compound 317, 5-[3-[(3S)-4-(3-chloro-5-fluoro-phenyl)-3-methyl-piperazin-1-yl]-3-oxo-propyl]-5-(3-pyridyl)imidazolidine-2,4-dione] are 52 nM, more than 4000 nM and 823 nM.
The corresponding values for `C[C@H]1CN(C(=O)CCC2(c3cccnc3)NC(=O)NC2=O)CCN1c1cccc(F)c1` (stereo partly drawn) [compound 319, 5-[3-[(3S)-4-(3-fluorophenyl)-3-methyl-piperazin-1-yl]-3-oxo-propyl]-5-(3-pyridyl)imidazolidine-2,4-dione] are 94 nM, more than 4000 nM and more than 4000 nM.
Turning to `C[C@H]1CN(C(=O)CCC2(c3cccnc3)NC(=O)NC2=O)CCN1c1cc(F)cc(F)c1` (stereo partly drawn) [compound 320, 5-[3-[(3S)-4-(3,5-difluorophenyl)-3-methyl-piperazin-1-yl]-3-oxo-propyl]-5-(3-pyridyl)imidazolidine-2,4-dione], the IC50 in test [1] was 48 nM; in test [2], more than 4000 nM; in test [3], more than 20000 nM.
For `C[C@H]1CN(C(=O)CCC2(c3cnccn3)NC(=O)NC2=O)CCN1c1cc(F)cc(Cl)c1` (stereo partly drawn) [compound 326, 5-[3-[(3S)-4-(3-chloro-5-fluoro-phenyl)-3-methyl-piperazin-1-yl]-3-oxo-propyl]-5-pyrazin-2-yl-imidazolidine-2,4-dione] the same measures were 52 nM, more than 4000 nM and more than 4000 nM.
Consider `C[C@H]1CN(C(=O)CCC2(c3cnccn3)NC(=O)NC2=O)CCN1c1cc(F)cc(F)c1` (stereo partly drawn) [compound 327, 5-[3-[(3S)-4-(3,5-difluorophenyl)-3-methyl-piperazin-1-yl]-3-oxo-propyl]-5-pyrazin-2-yl-imidazolidine-2,4-dione], for which the concentration for half-maximal inhibition (IC50) was 45 nM in test [1], more than 4000 nM in test [2] and more than 4000 nM in test [3].
As for `C[C@H]1CN(C(=O)CCC2(c3cncnc3)NC(=O)NC2=O)CCN1c1cc(F)cc(F)c1` (stereo partly drawn) [compound 332, 5-[3-[(3S)-4-(3,5-difluorophenyl)-3-methyl-piperazin-1-yl]-3-oxo-propyl]-5-pyrimidin-5-yl-imidazolidine-2,4-dione], the concentration for half-maximal inhibition (IC50) in test [1] was 61 nM; in test [2] it was more than 20000 nM; in test [3], 378 nM.
The corresponding values for `C[C@@H](CC1(C2CC2)NC(=O)NC1=O)C(=O)N1CCN(c2cccc(-c3cn[nH]c3)c2)[C@@H](C)C1` (stereo partly drawn) [compound 339, 5-cyclopropyl-5-[(2S)-2-methyl-3-[(3S)-3-methyl-4-[3-(1H-pyrazol-4-yl)phenyl]piperazin-1-yl]-3-oxo-propyl]imidazolidine-2,4-dione] are 33 nM, more than 4000 nM and 1230 nM.
The corresponding values for `Cc1cncc(N2CCN(C(=O)C(C)CC3(C4CC4)NC(=O)NC3=O)C[C@@H]2C)c1` (stereo partly drawn) [compound 342, 5-cyclopropyl-5-[2-methyl-3-[(3S)-3-methyl-4-(5-methyl-3-pyridyl)piperazin-1-yl]-3-oxo-propyl]imidazolidine-2,4-dione] are 39 nM, more than 4000 nM and 2600 nM.
The corresponding values for `C[C@H]1CN(C(=O)CCC2(c3ccccn3)NC(=O)NC2=O)CCN1c1cc(F)cc(Cl)c1` (stereo partly drawn) [compound 346, 5-[3-[(3S)-4-(3-chloro-5-fluoro-phenyl)-3-methyl-piperazin-1-yl]-3-oxo-propyl]-5-(2-pyridyl)imidazolidine-2,4-dione] are 37 nM, more than 4000 nM and more than 4000 nM.
`C[C@H]1CN(C(=O)CCC2(c3cnccn3)NC(=O)NC2=O)CCN1c1cccc(F)c1` (stereo partly drawn) [compound 350, 5-[3-[(3S)-4-(3-fluorophenyl)-3-methyl-piperazin-1-yl]-3-oxo-propyl]-5-pyrazin-2-yl-imidazolidine-2,4-dione]: the IC50 was 62 nM in test [1], more than 20000 nM in test [2] and 1310 nM in test [3].
For `CC(CC1(C2CC2)NC(=O)NC1=O)C(=O)N1CCN(c2cccnc2)[C@@H](C)C1` (stereo partly drawn) [compound 351, 5-cyclopropyl-5-[2-methyl-3-[(3S)-3-methyl-4-(3-pyridyl)piperazin-1-yl]-3-oxo-propyl]imidazolidine-2,4-dione] the same measures were 35 nM, more than 20000 nM and 3840 nM.
Turning to `C[C@H]1CN(C(=O)CC[C@@]2(C3CC3)NC(=O)NC2=O)CCN1c1cc(F)cc(-c2cn[nH]c2)c1` [compound 357, (5S)-5-cyclopropyl-5-[3-[(3S)-4-[3-fluoro-5-(1H-pyrazol-4-yl)phenyl]-3-methyl-piperazin-1-yl]-3-oxo-propyl]imidazolidine-2,4-dione], the IC50 in test [1] was 25 nM; in test [2], more than 4000 nM; in test [3], more than 20000 nM.
On to `CCC1(C[C@H](C)C(=O)N2CCN(c3cncc(Cl)c3)[C@@H](C)C2)NC(=O)NC1=O` (stereo partly drawn) [compound 359, 5-[(2S)-3-[4-(5-chloro-3-pyridyl)-3-methyl-piperazin-1-yl]-2-methyl-3-oxo-propyl]-5-ethyl-imidazolidine-2,4-dione], for which the concentration for half-maximal inhibition (IC50) in test [1] was 83 nM; in test [2], more than 12000 nM; in test [3], 978 nM.
